What was measured:
[1] = molecular target: rabbit kidney ATPase; test: ATPase activity assay, specificity panel; assay type: biochemical; details: highest used inhibitor concentration 136 μM, read-out: Concentration causing 50% inhibition of enzymatic activity (C50)
Procedure: (§1) One such ATPase assay is described in the examples below. In one preferred embodiment, the ATPase activity assay utilizes 0.3 M PCA (perchloric acid) and malachite green reagent (8.27 mM sodium molybdate II, 0.33 mM malachite green oxalate, and 0.8 mM Triton X-100). To perform the assay, 10 μL of reaction is quenched in 90 μl of cold 0.3 M PCA. Phosphate standards are used so data can be converted to mM inorganic phosphate released.
(§2) When all reactions and standards have been quenched in PCA, 100 μl of malachite green reagent is added to the to relevant wells in e.g., a microtiter plate. The mixture is developed for 10-15 minutes and the plate is read at an absorbance of 650 nm. If phosphate standards were used, absorbance readings can be converted to mM Pi and plotted over time.
(§3) […]

[2] = molecular target: Myosin II (EDTA); test: ATPase activity assay, specificity panel (EDTA activated ATPase); assay type: biochemical; details: read-out: Concentration causing 50% inhibition of enzymatic activity (C50)
Procedure: as §1, §2, §3

[3] = molecular target: TI-γ; test: ATPase activity assay, specificity panel; assay type: biochemical, Thermomyces lanuginosus; details: at 2 μM tubulin, read-out: Concentration causing 50% inhibition of enzymatic activity (C50)
Procedure: as §1, §2
TI-γ (a kinesin superfamily member from the fungus Thermomyces lanuginosus) was adsorbed to a glass coverslip and supplemented with a mixture of microtubules, 2 mM Mg-ATP, and sponge extracts in DMSO (5% final concentration). Motility was scored visually on a Zeiss Axioplan microscope sat up for DIC and fitted with an Argus 10 video processor (Hamamatsu).
Initial rate measurements were done at room temperature using a malachite green assay (Geladopoulos et al. (1991) Anal. Biochem., 192: 112-116) modified to work in 96 well microtiter plates and scored on a plate reader at 650 nm. […]

[4] = molecular target: T1, microtubule stimulated ATPase of kinesin (Drosophila melanogaster, UniProt P17210); test: Microtubule-stimulated kinesin ATPase, steady state kinetics; assay type: biochemical
T1 construct: kinesin heavy chain fragment containing amino acids 5-351 of the wild type protein; hexahistidine (C); made in house; host or cells: bacterial cells (IPTG induced)
T1 sequence (P17210 5-351): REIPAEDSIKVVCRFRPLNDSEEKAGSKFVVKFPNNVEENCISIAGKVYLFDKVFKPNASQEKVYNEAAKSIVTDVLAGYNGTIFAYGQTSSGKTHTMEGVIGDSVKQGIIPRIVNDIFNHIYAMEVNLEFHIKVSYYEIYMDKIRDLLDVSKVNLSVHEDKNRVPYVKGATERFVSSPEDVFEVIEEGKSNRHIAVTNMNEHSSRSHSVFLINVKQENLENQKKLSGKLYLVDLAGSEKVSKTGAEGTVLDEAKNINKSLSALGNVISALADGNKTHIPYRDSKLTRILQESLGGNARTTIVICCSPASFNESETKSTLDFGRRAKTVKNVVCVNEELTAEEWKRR
Procedure: (§4) All kinetic and binding measurements were performed on a bacterially expressed Drosophila kinesin heavy chain fragment containing amino acids 5-351 of the wild type protein and a hexahistidine tag at the C-terminus. Protein was purified from the soluble fraction of IPTG induced bacterial cells by a single round of affinity chromatography on Ni—NTA-agarose (Qiagen), concentrated by microfiltration, and frozen in small aliquots in liquid nitrogen.
(§5) Initial rate measurements were done at room temperature using a malachite green assay (Geladopoulos et al. (1991) Anal. Biochem., 192: 112-116) modified to work in 96 well microtiter plates and scored on a plate reader at 650 nm. ATP concentration dependence and basal ATPase rate were determined by a coupled enzymatic assay with pyruvate kinase and lactate dehydrogenase monitoring changes in absorbance at 340 nm. Phosphate standards (650 μM-7 μM) were included with each reading.
Extracts from 268 marine sponges were initially tested for their ability to disrupt normal behavior of microtubules in a gliding motility assay. This screening method allowed immediate distinction between substances that affected microtubule movement and those that caused microtubule depolymerization or breakage. Active extracts from the initial screening were then tested for inhibition of the microtubule-stimulated kinesin ATPase.

[5] = molecular target: T2, kinesin binding to microtubules (Drosophila melanogaster, UniProt P17210); test: Kinesin-microtubule co-sedimentation assay with AMP-PNP; details: co-sedimentation in the presence of AMP-PNP
T2 construct: kinesin heavy chain fragment containing amino acids 5-351 of the wild type protein; hexahistidine (C); made in house; host or cells: bacterial cells (IPTG induced)
T2 sequence (P17210 5-351): T1 sequence (P17210 5-351)
Procedure: as §4
This was tested by performing a kinesin-microtubule co-sedimentation assay in the presence of a nonhydrolysable ATP analog, AMP-PNP, with or without adociasulfate.

[6] = molecular target: T3, basal kinesin ATPase (Drosophila melanogaster, UniProt P17210); test: Basal (non microtubule-stimulated) kinesin ATPase rate, coupled enzymatic assay; assay type: biochemical; details: absence of microtubules; up to 136 μM (the highest tested)
T3 construct: kinesin heavy chain fragment containing amino acids 5-351 of the wild type protein; hexahistidine (C); made in house; host or cells: bacterial cells (IPTG induced)
T3 sequence (P17210 5-351): T1 sequence (P17210 5-351)
Procedure: as §4, §5
In contrast, varying the ATP concentration had no effect on the overall shape of the kinetic curves. […] An additional argument against adociasulfate binding at the nucleotide pocket comes from the lack of an inhibitory effect on the basal, non microtubule-stimulated rate of the kinesin ATPases. If adociasulfate interfered with nucleotide binding, or locked the enzyme in a particular nucleotide-bound state, ATP turnover in the absence of microtubule should be decreased.

[7] = molecular target: T4, kinesin (K-ADP state) (Drosophila melanogaster, UniProt P17210); test: ADP release from kinesin; assay type: biochemical; details: varying concentrations of adociasulfate
T4 construct: kinesin heavy chain fragment containing amino acids 5-351 of the wild type protein; hexahistidine (C); made in house; host or cells: bacterial cells (IPTG induced)
T4 sequence (P17210 5-351): T1 sequence (P17210 5-351)
Procedure: as §4
The percent of ADP released from the enzyme was determined by the methods of Hackney (see, e.g., Hackney (1994) J. Biol. Chem., […]: 16508-16511). Briefly, 80 μM kinesin was preincubated with α-^32PATP at room temperature for 15 min and than stored on ice. 1 μl aliquots of that mixture were diluted into 100 μl of “chase mix” containing 0.5 mg/ml pyruvate kinase, 2 mM phosphoenalpyruvate, and varying concentrations of adociasulfate. […] The amount of ADP that became accessible to pyruvate kinase and was converted to ATP was determined by a thin layer chromatography on PEI-cellulose followed by phosphoimager quantitation.
Microtubule binding to kinesin induced 1,000-fold stimulation of the basal ATPase rate, owing primarily to accelerated ADP release. […] The adociasulfate concentration at 50% of maximum burst is much higher than the K1 determined in steady state microtubule competition assays. […]

CC1(C)CCC[C@]2(C)O[C@H]3CC[C@@]4(C)[C@@H](CC[C@]5(C)[C@@H]4CC[C@]4(C)c6c(OS(=O)(=O)O)ccc(OS(=O)(=O)O)c6C[C@@H]54)[C@]3(C)CC[C@@H]12 [adociasulfate]
IC50 [1]: > 136 µM
IC50 [2]: 75 µM
IC50 [3]: 2 µM
Mode of inhibition ([4]; steady state kinetic measurements, varying microtubule concentration): competitive with microtubules
Vmax ([4]; varying ATP concentration, higher adociasulfate concentrations): progressively lower
Effect on binding of kinesin to microtubules [5]: abolished binding of kinesin to microtubules
Effect on basal ATPase rate [6]: did not inhibit the basal ATPase rate
ADP release from kinesin [7]: bursts of ADP release were observed
